Results taken from patent US20180334436A1 (VIIV HEALTHCARE UK LIMITED, priority 2015, published 2018).

System: HIV
Assay: MT4 assay (anti-HIV activity)
Assay type: cell-based
Conditions: Human immunodeficiency virus 1, 96 h, antiviral HIV activity in HTLV-1 transformed cell line MT-4; luciferase read 96 hours later; 10 point dose response
Protocol: Antiviral HIV activity and cytotoxicity values for compounds of the invention from Table 1 were measured in parallel in the HTLV-1 transformed cell line MT-4 based on the method previously described (Hazen et al., 2007, In vitro antiviral activity of the novel, tyrosyl-based human immunodeficiency virus (HIV) type 1 protease inhibitor brecanavir (GW640385) in combination with other antiretrovirals and against a panel of protease inhibitor-resistant HIV (Hazen et al., “In vitro antiviral activity of the novel, tyrosyl-based human immunodeficiency virus (HIV) type 1 protease inhibitor brecanavir (GW640385) in combination with other antiretrovirals and against a panel of protease inhibitor-resistant HIV”, Antimicrob. Agents Chemother. 2007, 51: 3147-3154; and Pauwels et al., “Sensitive and rapid assay on MT-4 cells for the detection of antiviral compounds against the AIDS virus”, J. of Virological Methods 1987, 16: 171-185).
Luciferase activity was measured 96 hours later by adding a cell titer glo (Promega, Madison, Wis.). Percent inhibition of cell protection data was plotted relative to no compound control. Under the same condition, cytotoxicity of the compounds was determined using cell titer Glo™ (Promega, Madison, Wis.). IC50s were determined from a 10 point dose response curve using 3-4-fold serial dilution for each compound, which spans a concentration range >1000 fold.
These values are plotted against the molar compound concentrations using the standard four parameter logistic equation:
y=((Vmax*x̂n)/(K̂n+x̂n))+Y2
Y2=minimum y n=slope factor
Vmax=maximum y x=compound concentration [M]

In order of rising IC50:
1. Cc1ccc(-c2c(C)c3c(c(C)c2[C@H](OC(C)(C)C)C(=O)O)CCN(C2CCCCCC2)C3)cc1 [Example 50, (S)-2-(tert-butoxy)-2-(2-cycloheptyl-5,8-dimethyl-7-(p-tolyl)-1,2,3,4-tetrahydroisoquinolin-6-yl)acetic Acid]  5 nM
2. Cc1ccc(-c2c(C)c3c(c(C)c2[C@H](OC(C)(C)C)C(=O)O)CCN(C2CCCC(C)(C)C2)C3)cc1 (stereo partly drawn) [Example 52, (2S)-2-(tert-butoxy)-2-(2-(3,3-dimethylcyclohexyl)-5,8-dimethyl-7-(p-tolyl)-1,2,3,4-tetrahydroisoquinolin-6-yl)acetic Acid]  10 nM
3. Cc1ccc(-c2c(C)c3c(c(C)c2[C@H](OC(C)(C)C)C(=O)O)CCN(C2CCC(C)(C)CC2)C3)cc1 [Example 40, (S)-2-(tert-butoxy)-2-(2-(4,4-dimethylcyclohexyl)-5,8-dimethyl-7-(p-tolyl)-1,2,3,4-tetrahydroisoquinolin-6-yl)acetic Acid]  11 nM
4. Cc1ccc(-c2c(C)c3c(c(C)c2[C@H](OC(C)(C)C)C(=O)O)CCN(C2CC4CCC2C4)C3)cc1 (stereo partly drawn) [Example 49, (2S)-2-(2-(bicyclo[2.2.1]heptan-2-yl)-5,8-dimethyl-7-(p-tolyl)-1,2,3,4-tetrahydroisoquinolin-6-yl)-2-(tert-butoxy)acetic Acid]  11 nM
5. Cc1ccc(-c2c(C)c3c(c(C)c2[C@H](OC(C)(C)C)C(=O)O)CCN(C2CCC4(CC2)CC4)C3)cc1 [Example 51, (S)-2-(tert-butoxy)-2-(5,8-dimethyl-2-(spiro[2.5]octan-6-yl)-7-(p-tolyl)-1,2,3,4-tetrahydroisoquinolin-6-yl)acetic Acid]  11 nM
6. Cc1ccc(-c2c(C)c3c(c(C)c2[C@H](OC(C)(C)C)C(=O)O)CCN(C2CCCCC2)C3)cc1 [Example 29, (S)-2-(tert-Butoxy)-2-(2-cyclohexyl-5,8-dimethyl-7-(p-tolyl)-1,2,3,4-tetrahydroisoquinolin-6-yl)acetic Acid]  13 nM
7. Cc1ccc(-c2c(C)c3c(c(C)c2[C@H](OC(C)(C)C)C(=O)O)CCN(C2CCC(F)(F)CC2)C3)cc1 [Example 56, (S)-2-(tert-butoxy)-2-(2-(4,4-difluorocyclohexyl)-5,8-dimethyl-7-(p-tolyl)-1,2,3,4-tetrahydroisoquinolin-6-yl)acetic Acid]  14 nM
8. Cc1ccc(-c2c(C)c3c(c(C)c2[C@H](OC(C)(C)C)C(=O)O)CCN(S(=O)(=O)C2CCCCC2)C3)cc1 [Example 45, (S)-2-(tert-butoxy)-2-(2-(cyclohexylsulfonyl)-5,8-dimethyl-7-(p-tolyl)-1,2,3,4-tetrahydroisoquinolin-6-yl)acetic Acid]  17 nM
9. Cc1ccc(-c2c(C)c3c(c(C)c2[C@H](OC(C)(C)C)C(=O)O)CCN(S(=O)(=O)N2CCCCC2)C3)cc1 [Example 38, (S)-2-(tert-butoxy)-2-(5,8-dimethyl-2-(piperidin-1-ylsulfonyl)-7-(p-tolyl)-1,2,3,4-tetrahydroisoquinolin-6-yl)acetic Acid]  23 nM
10. Cc1ccc(-c2c(C)c3c(c(C)c2[C@H](OC(C)(C)C)C(=O)O)CCN(CC(C)(C)C)C3)cc1 [Example 33, (S)-2-(tert-Butoxy)-2-(5,8-dimethyl-2-neopentyl-7-(p-tolyl)-1,2,3,4-tetrahydroisoquinolin-6-yl)acetic Acid]  37 nM
11. Cc1ccc(-c2c(C)c3c(c(C)c2[C@H](OC(C)(C)C)C(=O)O)CCN(CC2CCCCC2)C3)cc1 [Example 31, (S)-2-(tert-Butoxy)-2-(2-(cyclohexylmethyl)-5,8-dimethyl-7-(p-tolyl)-1,2,3,4-tetrahydroisoquinolin-6-yl)acetic Acid]  50 nM
12. Cc1ccc(-c2c(C)c3c(c(C)c2[C@H](OC(C)(C)C)C(=O)O)CCN(C(=O)C2CCCCC2)C3)cc1 [Example 47, (S)-2-(tert-butoxy)-2-(2-(cyclohexanecarbonyl)-5,8-dimethyl-7-(p-tolyl)-1,2,3,4-tetrahydroisoquinolin-6-yl)acetic Acid]  51 nM
13. Cc1ccc(-c2c(C)c3c(c(C)c2[C@H](OC(C)(C)C)C(=O)O)CCN(C2CCCC2)C3)cc1 [Example 32, (S)-2-(tert-Butoxy)-2-(2-cyclopentyl-5,8-dimethyl-7-(p-tolyl)-1,2,3,4-tetrahydroisoquinolin-6-yl)acetic Acid]  96 nM
14. Cc1ccc(-c2c(C)c3c(c(C)c2[C@H](OC(C)(C)C)C(=O)O)CN(C(=O)CC2CCCCC2)CC3)cc1 [Example 37, (S)-2-(tert-butoxy)-2-(2-(2-cyclohexylacetyl)-5,8-dimethyl-6-(p-tolyl)-1,2,3,4-tetrahydroisoquinolin-7-yl)acetic Acid]  118 nM
15. Cc1ccc(-c2c(C)c3c(c(C)c2[C@H](OC(C)(C)C)C(=O)O)CCN(S(=O)(=O)c2ccccc2)C3)cc1 [Example 41, (S)-2-(tert-butoxy)-2-(5,8-dimethyl-2-(phenylsulfonyl)-7-(p-tolyl)-1,2,3,4-tetrahydroisoquinolin-6-yl)acetic Acid]  138 nM
16. Cc1ccc(-c2c(C)c3c(c(C)c2[C@H](OC(C)(C)C)C(=O)O)CCN(c2ccccc2)C3)cc1 [Example 36, (S)-2-(tert-Butoxy)-2-(5,8-dimethyl-2-phenyl-7-(p-tolyl)-1,2,3,4-tetrahydroisoquinolin-6-yl)acetic Acid]  148 nM
17. Cc1ccc(-c2c(C)c3c(c(C)c2[C@H](OC(C)(C)C)C(=O)O)CCN(CCc2ccccc2)C3)cc1 [Example 34, (S)-2-(tert-Butoxy)-2-(5,8-dimethyl-2-phenethyl-7-(p-tolyl)-1,2,3,4-tetrahydroisoquinolin-6-yl)acetic Acid]  165 nM
18. Cc1ccc(-c2c(C)c3c(c(C)c2[C@H](OC(C)(C)C)C(=O)O)CCN(CCC2CCCCC2)C3)cc1 [Example 39, (S)-2-(tert-butoxy)-2-(2-(2-cyclohexylethyl)-5,8-dimethyl-7-(p-tolyl)-1,2,3,4-tetrahydroisoquinolin-6-yl)acetic Acid]  225 nM
19. Cc1ccc(-c2c(C)c3c(c(C)c2[C@H](OC(C)(C)C)C(=O)O)CCN(C(=O)C(=O)N2CCCCC2)C3)cc1 [Example 46, (S)-2-(tert-butoxy)-2-(5,8-dimethyl-2-(2-oxo-2-(piperidin-1-yl)acetyl)-7-(p-tolyl)-1,2,3,4-tetrahydroisoquinolin-6-yl)acetic Acid]  276 nM
20. Cc1ccc(-c2c(C)c3c(c(C)c2[C@H](OC(C)(C)C)C(=O)O)CCN(CC(=O)N2CCCCC2)C3)cc1 [Example 54, (S)-2-(tert-butoxy)-2-(5,8-dimethyl-2-(2-oxo-2-(piperidin-1-yl)ethyl)-7-(p-tolyl)-1,2,3,4-tetrahydroisoquinolin-6-yl)acetic Acid]  309 nM
21. Cc1ccc(-c2c(C)c3c(c(C)c2[C@H](OC(C)(C)C)C(=O)O)CCN(C(=O)c2ccccc2)C3)cc1 [Example 48, (S)-2-(2-benzoyl-5,8-dimethyl-7-(p-tolyl)-1,2,3,4-tetrahydroisoquinolin-6-yl)-2-(tert-butoxy)acetic Acid]  325 nM
22. Cc1ccc(-c2c(C)c3c(c(C)c2[C@H](OC(C)(C)C)C(=O)O)CCN(Cc2ccccc2)C3)cc1 [Example 55, (S)-2-(2-benzyl-5,8-dimethyl-7-(p-tolyl)-1,2,3,4-tetrahydroisoquinolin-6-yl)-2-(tert-butoxy)acetic Acid]  349 nM
23. Cc1ccc(-c2c(C)c3c(c(C)c2[C@H](OC(C)(C)C)C(=O)O)CCN(C(=O)NC2CCCCC2)C3)cc1 [Example 35, (S)-2-(tert-Butoxy)-2-(2-(cyclohexylcarbamoyl)-5,8-dimethyl-7-(p-tolyl)-1,2,3,4-tetrahydroisoquinolin-6-yl)acetic Acid]  360 nM
24. Cc1ccc(-c2c(C)c3c(c(C)c2[C@H](OC(C)(C)C)C(=O)O)CCN(Cc2cccc(F)c2)C3)cc1 [Example 30, (S)-2-(tert-Butoxy)-2-(2-(3-fluorobenzyl)-5,8-dimethyl-7-(p-tolyl)-1,2,3,4-tetrahydroisoquinolin-6-yl)acetic Acid]  382 nM
25. Cc1ccc(-c2c(C)c3c(c(C)c2[C@H](OC(C)(C)C)C(=O)O)CCN(C(=O)c2cccnc2)C3)cc1 [Example 43, (S)-2-(tert-butoxy)-2-(5,8-dimethyl-2-nicotinoyl-7-(p-tolyl)-1,2,3,4-tetrahydroisoquinolin-6-yl)acetic Acid]  635 nM
26. Cc1ccc(-c2c(C)c3c(c(C)c2[C@H](OC(C)(C)C)C(=O)O)CCN(C(=O)CN2CCCCC2)C3)cc1 [Example 53, (S)-2-(tert-butoxy)-2-(5,8-dimethyl-2-(2-(piperidin-1-yl)acetyl)-7-(p-tolyl)-1,2,3,4-tetrahydroisoquinolin-6-yl)acetic Acid]  807 nM
27. Cc1ccc(-c2c(C)c3c(c(C)c2[C@H](OC(C)(C)C)C(=O)O)CCN(C(=O)c2ccncc2)C3)cc1 [Example 44, (S)-2-(tert-butoxy)-2-(2-isonicotinoyl-5,8-dimethyl-7-(p-tolyl)-1,2,3,4-tetrahydroisoquinolin-6-yl)acetic Acid]  1010 nM
28. Cc1ccc(-c2c(C)c3c(c(C)c2[C@H](OC(C)(C)C)C(=O)O)CCN(C(=O)c2ccccn2)C3)cc1 [Example 42, (S)-2-(tert-butoxy)-2-(5,8-dimethyl-2-picolinoyl-7-(p-tolyl)-1,2,3,4-tetrahydroisoquinolin-6-yl)acetic Acid]  1140 nM
